Experimental findings from patent US11299488B2, “Five membered-aminoheterocycle and 5,6-or 6,6-membered bicyclic aminoheterocyclic inhibitors of rock for the treatment of heart failure” (BRISTOL-MYERS SQUIBB COMPANY, priority 2017, dated 2022) are described below.

Chain of ROCK2 (O75116 whole entry, species assumed): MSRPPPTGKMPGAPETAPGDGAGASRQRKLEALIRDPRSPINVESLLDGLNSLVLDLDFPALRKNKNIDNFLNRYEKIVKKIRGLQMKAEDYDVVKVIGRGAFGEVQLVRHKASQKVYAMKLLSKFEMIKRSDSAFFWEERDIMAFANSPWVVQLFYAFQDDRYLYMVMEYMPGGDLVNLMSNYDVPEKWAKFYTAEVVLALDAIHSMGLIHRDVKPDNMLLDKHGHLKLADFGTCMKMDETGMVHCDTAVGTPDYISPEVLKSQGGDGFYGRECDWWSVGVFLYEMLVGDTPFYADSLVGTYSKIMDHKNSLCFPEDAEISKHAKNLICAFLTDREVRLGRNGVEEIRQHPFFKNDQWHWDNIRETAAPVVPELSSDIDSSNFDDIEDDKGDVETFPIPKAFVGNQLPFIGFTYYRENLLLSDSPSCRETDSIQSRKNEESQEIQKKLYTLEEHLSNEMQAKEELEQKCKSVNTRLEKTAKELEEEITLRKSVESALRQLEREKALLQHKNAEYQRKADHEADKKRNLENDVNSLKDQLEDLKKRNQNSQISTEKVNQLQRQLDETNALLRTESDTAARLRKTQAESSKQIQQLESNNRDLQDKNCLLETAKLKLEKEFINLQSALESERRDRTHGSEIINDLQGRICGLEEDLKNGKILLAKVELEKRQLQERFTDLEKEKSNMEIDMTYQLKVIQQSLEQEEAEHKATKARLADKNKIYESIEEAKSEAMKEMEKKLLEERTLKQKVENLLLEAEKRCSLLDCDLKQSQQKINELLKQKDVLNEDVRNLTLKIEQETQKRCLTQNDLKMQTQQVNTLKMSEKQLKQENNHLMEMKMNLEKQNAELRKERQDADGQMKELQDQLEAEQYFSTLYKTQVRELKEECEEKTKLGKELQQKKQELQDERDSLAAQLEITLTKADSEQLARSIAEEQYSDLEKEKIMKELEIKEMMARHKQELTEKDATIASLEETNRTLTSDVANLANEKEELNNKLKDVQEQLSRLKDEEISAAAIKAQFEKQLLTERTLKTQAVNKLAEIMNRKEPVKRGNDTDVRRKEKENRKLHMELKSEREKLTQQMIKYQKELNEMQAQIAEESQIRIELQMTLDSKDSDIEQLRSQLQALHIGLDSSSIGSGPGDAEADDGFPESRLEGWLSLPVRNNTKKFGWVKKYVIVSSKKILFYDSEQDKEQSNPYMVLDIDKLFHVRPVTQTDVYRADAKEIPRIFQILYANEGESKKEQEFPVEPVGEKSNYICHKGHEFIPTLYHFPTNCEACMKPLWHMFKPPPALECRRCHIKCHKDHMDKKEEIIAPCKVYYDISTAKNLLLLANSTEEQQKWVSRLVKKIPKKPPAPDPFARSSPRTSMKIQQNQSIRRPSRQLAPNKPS

The target in this assay is ROCK2 (Homo sapiens (Human), UniProt O75116). The assay can be described thus: ROCK assay (Caliper LABCHIP peptide phosphorylation, 5 μM ATP). The assay is classed as biochemical. On the procedure:
The effectiveness of compounds of the present invention as ROCK inhibitors can be determined in a 30 μL assay containing 20 mM HEPES, pH 7.5, 20 mM MgCl2, 0.015% Brij-35, 4 mM DTT, 5 μM ATP and 1.5 μM peptide substrate (FITC-AHA-AKRRRLSSLRA-OH) (SEQ ID No. 1). Compounds were dissolved in DMSO so that the final concentration of DMSO was <2%, and the reaction was initiated with Rho kinase variants. After incubation, the reaction was terminated by the addition of EDTA and the phosphorylated and non-phosphorylated peptides separated using a LABCHIP® 3000 Reader (Caliper Life Sciences). […] Compounds were tested in dose-response format, and the inhibition of kinase activity was calculated at each concentration of compound. The inhibition data were fit using a curve-fitting program to determine the IC50; i.e., the concentration of compound required to inhibit 50% of kinase activity. Representative Examples were tested in the ROCK assay described above and found having ROCK inhibitory activity. A range of ROCK inhibitory activity (IC50 values) of ≤50 μM (50000 nM) was observed. Table A below lists the ROCK IC50 values measured for the following examples.
Molecule `Cc1ccc2c(N[C@H]3C[C@]4(C3)C[C@H](Oc3ncccc3C(N)=O)C4)nccc2c1` (stereo partly drawn) [Example 31, 2-(((2S,4s, 6S)-6-((6-methyl-isoquinolin-1-yl)amino)spiro [3.3]heptan-2-yl)oxy) nicotinamide] came in with an IC50 of 47 nM.
`COc1ccc2c(N[C@H]3C[C@]4(C3)C[C@H](Oc3ncccc3C(N)=O)C4)nc(OC)cc2c1` (stereo partly shown) [Example 32]: half-maximal inhibition (IC50) required 68 nM.
Molecule `COc1ccc2c(N[C@H]3C[C@]4(C3)C[C@H](Oc3ncccc3C(N)=O)C4)nccc2c1` (stereo partly drawn) [Example 33, 2-(((2S,4s,6S)-6-((6-methoxy-isoquinolin-1-yl)amino)spiro [3.3]heptan-2-yl)oxy) nicotinamide] displayed an IC50 of 17 nM.
`N#Cc1ccc(-c2cnc(N[C@H]3CC4(C3)C[C@H](Oc3ncccc3C(N)=O)C4)nc2)cc1` (stereo partly drawn) [Example 34, 2-(((2S,4s,6S)-6-((5-(4-cyanophenyl)pyrimidin-2-yl)amino)spiro[3.3]heptan-2-yl)oxy)nicotinamide] returned an IC50 of 105 nM.
Turning to `NC(=O)c1cccnc1OC1CC2(CC(Nc3ncc4cc(Br)ccc4n3)C2)C1` [Example 35, 2-(((2S,4s,6S)-6-((6-bromo-quinazolin-2-yl)amino)spiro[3.3]heptan-2-yl)oxy) nicotinamide], the midpoint of inhibition, the IC50, lay at 192 nM.
`[H][C@]1(Oc2ncccc2C(N)=O)C[C@]2(C[C@@H](Nc3nccc(N4CCC(F)(F)CC4)n3)C2)C1` (stereo partly drawn) [Example 37, 2-(((2S,4s,6S)-6-((4-(4,4-difluoro-piperidin-1-yl)pyrimidin-2-yl)amino)spiro[3.3]heptan-2-yl)oxy) nicotinamide] displayed an IC50 of 202 nM.
The figure for `[H][C@]1(Oc2ncccc2C(N)=O)C[C@]2(C[C@@H](Nc3nccc(N4CCC(F)(F)C4)n3)C2)C1` (stereo partly drawn) [Example 38, 2-(((2S,4s,6S)-6-((4-(3,3-difluoro-pyrrolidin-1-yl)pyrimidin-2-yl)amino)spiro[3.3]heptan-2-yl)oxy) nicotinamide] is 388 nM; for `[H][C@]1(Oc2ncccc2C(N)=O)C[C@]2(C[C@@H](Nc3nccc(N4CC(F)(F)C4)n3)C2)C1` (stereo partly drawn) [Example 39, 2-(((2S,4s,6S)-6-((4-(3,3-difluoro-azetidin-1-yl)pyrimidin-2-yl)amino)spiro[3.3]heptan-2-yl)oxy) nicotinamide] it is 983 nM.
`[H][C@]1(Oc2ncccc2C(N)=O)C[C@]2(C[C@@H](Nc3nccc(N4CCC(F)CC4)n3)C2)C1` (stereo partly drawn) [Example 40, 2-(((2S,4s,6S)-6-((4-(4-fluoro-piperidin-1-yl)pyrimidin-2-yl)amino)spiro [3.3]heptan-2-yl)oxy) nicotinamide] yielded an IC50 of 378 nM.
As to `[H][C@]1(Oc2ncccc2C(N)=O)C[C@]2(C[C@@H](Nc3nccc(N4CCCC(F)C4)n3)C2)C1` (stereo partly drawn) [Example 41, 2-(((2S,4s,6S)-6-((4-(3-fluoro-piperidin-1-yl)pyrimidin-2-yl)amino)spiro [3.3]heptan-2-yl)oxy) nicotinamide], the IC50 stood at 496 nM. This IC50 and that of the molecule before are within 1.5-fold of each other.
`[H][C@]1(Oc2ncccc2C(N)=O)C[C@@]2(C[C@H](Nc3nccc(N4CC[C@H](F)C4)n3)C2)C1` (stereo partly drawn) [Example 42, 2-(((2S,4r,6S)-6-((4-((S)-3-fluoro-pyrrolidin-1-yl)pyrimidin-2-yl)amino)spiro [3.3]heptan-2-yl)oxy) nicotinamide] registered an IC50 of 2030 nM.
As for `[H][C@]1(Oc2ncccc2C(N)=O)C[C@]2(C[C@@H](Nc3nccc(N4CCC(C(F)(F)F)CC4)n3)C2)C1` (stereo partly drawn) [Example 43, 2-(((2S,4s,6S)-6-((4-(4-(trifluoro-methyl)piperidin-1-yl)pyrimidin-2-yl)amino)spiro[3.3]heptan-2-yl)oxy) nicotinainide], 165 nM corresponded to half-maximal inhibition (IC50).
Molecule `[H][C@]1(Oc2ncccc2C(N)=O)C[C@]2(C[C@@H](Nc3nccc(NC4CCC(F)(F)CC4)n3)C2)C1` (stereo partly drawn) [Example 44, 2-(((2S,4s,6S)-6-((4-((4,4-difluoro-cyclohexyl)amino)pyrimidin-2-yl)amino)spiro[3.3]heptan-2-yl)oxy) nicotinamide] came in with a half-maximal inhibitory concentration (IC50) of 489 nM.

As a reminder, the IC50 is the concentration needed to halve the response being measured. Higher therefore signals a need for much substance.
